# Results taken from US11046647B2, “Activators of the unfolded protein response” (The Board of Trustees of the University of Illinois, priority 2018, dated 2021).
# How the values were obtained:
# [1] = tested on: MCF-7 cells; assay: Alamar Blue/raptinal 24-hour cell death assay, MCF-7; type: cell-based, human; settings: 24-hour incubation, Alamar blue fluorescence
# Protocol: FIG. 4. […] MCF7 (ERα) cells, 24 hour incubation, read out via Alamar Blue Fluorescence, Dead Control: Raptinal, n=3 (A, B). […] Orthotopic Mouse Xenograft breast cancers of TYS cells, Visualization by bioluminescent imaging. Treatment: 40 mg/kg daily (−)-105 for 3 days either by oral gavage or by intraperitoneal injection.
# ALAMAR BLUE/RAPTINAL ASSAY: Live cells maintain a reducing environment. The non-fluorescent cell permeable ingredient of Alamar Blue® (resazurin) is taken up by cells. In living cells, it is reduced to the fluorescent compound resorufin. Using a standard curve of cell number versus fluorescence the number of live cells in a test sample can be determined. At high concentrations raptinal kills 100% of cells. The vehicle in which the test compound is dissolved is not toxic. Thus, after subtracting the blank for medium alone, the fluorescence reading for vehicle corresponds to 100% viable cells and the signal for raptinal corresponds to 0% viable cells. While this assay provides a less direct measurement of cell death than the trypan blue assay, it is more easily scaled up to large numbers of samples.
# (§1) ALAMAR BLUE RAPTINAL ASSAYS: Cells were plated at 4,000-10,000 cells/well (96 well plate), usually in 50 μl of medium. After about 18 hours, an additional 50 μl of medium containing 2× the desired final concentration of the test compound (C-105) was added to each well. After 24 hours Alamar Blue reagent was added and fluorescence in the wells was read (BMG PheraStar or Molecular Devices Spectra Max M3 Microplate Reader). % relative death was determined by setting the reading for raptinal-treated cells to 100% dead cells and the reading for vehicle-treated cells to 0% dead cells.
# Preparative gram-scale chiral separation of (±)-1 yields enantiopure (R)-1 and (S)-1 with opposite optical rotations (Scheme 5). […] Values were obtained after 24-hour incubation utilizing Alamar blue fluorescence assay normalized to live and death controls (vehicle and raptinal treated). (S)-1 IC50 is >1 μM. Error shown as S.E.M.
# [2] = tested on: T47D cells; settings: 100, 500 and 1,000 nM; 24 hours; n=1
# Protocol: One such change is loss of plasma membrane polarity. This is monitored using Annexin V. Dying cells also take up the dye propidium iodide. Propidium iodide (PI) fluoresces when it is intercalated into DNA. These assays monitor cells at specific stages of cell death.
# FLOW CYTOMETRY (FITC) ASSAYS: Cells were seeded in 12-well plates, 75,000 cells/well, and allowed to adhere overnight. The next day, the indicated concentrations of raptinal (positive control), (−)-105, (±)-105, and (+)-105 were added and allowed to incubate at 37° C. for 24 hours (Final Volume: 1 ml, 0.1% DMSO). After incubation, cells were harvested and resuspended in 350 μl of cold Annexin binding buffer (10 mM HEPES, 140 mM NaCl, 2.5 mM CaCl2, pH 7.4) premixed with Annexin V-FITC and PI dyes. Samples were analyzed on a BD Biosciences LSRII flow cytometer, and data analysis was performed using FSC Express Version 5-6. Cell death was assessed relative to a DMSO treated control.
# T47D, human breast cancer cells were plated at 75,000 cells/well. The next day, DMSO vehicle, 10 μM raptinal (control for 100% cell death), or 0, 50, 100 500 and 1,000 nM of BHPI or (±)-105, or 1,000 nM ICI/fulvestrant or 1,000 nM OHT was added. After 24 hours viable cells were determined by FACS using annexin V-FITC and propidium iodide dyes. (n=3 independent experiments ±SEM).
# 75,000 ERα positive T47D, human breast cancer cells, were plated/well. The next day, DMSO vehicle, 10 μM raptinal (control for 100% cell death), or 100 500 and 1,000 nM of (+)-105, or (−)-105 was added. After 24 hours viable cells were determined by FACS using annexin V-FITC and propidium iodide dyes. (n=1).
# [3] = tested on: TDG cells; assay: Trypan Blue exclusion cell death assay, TDG / TDG-Luc; type: cell-based, human; settings: 24 hours; TDG-Luc
# Text: (§2) TRYPAN BLUE: For decades, viable cells have been measured by their ability to exclude the dye Trypan Blue. […] Dead cells, which have lost membrane integrity, take up the dye and are blue. Thus, the percentage of dead cells is the percentage of cells that are Trypan Blue positive out of the total cell population. Quantitative assessment of Trypan Blue uptake uses a cell counter from Fisher. Since the assay is instrument based, there is no observer bias in determining the percentage of Trypan Blue positive cells.
# (§3) TRYPAN BLUE ASSAYS: Assays are performed on cells in 6 well plates: 300,000 cells are plated in each well of a 6-well plate in 3 ml of medium. After 24 hours, the DMSO vehicle or the indicated compound is added (in 1000th of the vol.) The cells incubated for an additional 24 hours, and then harvested in 0.25 ml of trypsin, followed after harvest by 0.75 ml of medium. The cells are spun down and resuspended in 100-200 μl of medium left that is over the cell pellet (resuspend cells by pipetting up and down a few times). Add 10 μl to 10 μl of trypan blue. Then 10 μl is inserted into the counting slide. After inserting the slide into the Fisher TC20 counting is automatic (these many cells are needed because an accurate ratio of Trypan Blue positive to Trypan Blue negative cells requires about 200 cells in the field the instrument counts).
# The Trypan Blue cell death assay was used to evaluate the ability of the active enantiomer of C-105 [(−)-105] to kill ERα positive TDG-Luc cells. For all studies, 300,000 TDG-Luc cells/well in 10% FBS were plated in a 6-well plate in triplicate. 24 hours after plating, the indicated concentrations the active enantiomer of (−)-105, or BHPI (top) ICI, or OHT (Lower left) or (+)-105 (lower right) were added. After 24 hours, the cells were harvested, and the % dead cells was determined by automated Trypan Blue exclusion using the Countess II automated hemocytometer. Percentage of viable cells was calculated by doing 100-(Cell Death %). (n=3±SEM).
# TDG cells were incubated for 24 hours with 75 nM of BHPI or 75 nM of each of the indicated test compounds: 4, 6 and (±)-105 (enantiomers not separated). Cell death was determined using the instrument-based Trypan Blue exclusion assay. Structures are in the Synthesis section. […] (n=3±SEM).
# [4] = tested on: MCF-7Y537S (MCF-7 ERαY537S-luciferase) cells; assay: Long-term cell culture experiment, MCF-7 ERαY537S-luciferase; type: cell-based, human; settings: conditions as FIG. 15 (1 μM)
# [5] = tested on: ERα positive and ERα negative cells; type: cell-based
# Protocol: as §1
# ERα positive MCF-7 breast cancer, Caov-3 ovarian cancer and ECC-1 uterine cancer cells and ERα negative MDA-MB-231 human breast cancer cells and HeLa, human cervical carcinoma cells and MCF-10A human mammary epithelial cells were plated at 10,000 cells/well (96 well plate) in 50 μl of medium. After about 18 hours, an additional 50 μl of medium containing 2× the desired final concentration of the test compound (C-105) was added to each well (final vol. 100 μl/well). After 24 hours Alamar Blue reagent was added and fluorescence in the wells was read after 1 hour (BMG PheraStar Microplate Reader). % relative death was determined by setting the reading for 10,000 nM raptinal-treated cells to 100% dead cells and the reading for vehicle-treated cells to 0% dead cells. (Data is the average ±SEM of 3 independent experiments with 5 biological replicates for each sample within each independent experiment.)
# FIG. 3 compares the ability of (±)-105 to kill ERα positive and ERα negative cells. The dose response tests the ability of (±)-105 to rapidly kill ERα positive and ERα negative cells. […] After 24 hours Alamar Blue reagent was added and fluorescence in the wells was read. % relative death was determined by setting the reading for […] raptinal-treated cells to 100% dead cells and the reading for vehicle-treated cells to 0% dead cells. […]
# [6] = tested on: TYS-Luc and TDG-Luc cells; assay: Xenograft studies using TYS-Luc and TDG-Luc cells (BHPI); type: in vivo, mouse; settings: after 4 weeks
# Text: In xenograft studies using TYS-Luc and TDG-Luc cells after 4 weeks the vehicle control breast tumors had roughly quadrupled in cells.
# [7] = tested on: ERα positive breast cancer; assay: Mouse xenograft model of ERα positive breast cancer (BHPI); type: in vivo; settings: reasonable doses
# [8] = tested on: ERα Negative MCF-10A cells; assay: Trypan Blue exclusion cell death assay, MCF-10A; type: cell-based; settings: 75 nM, 24 hours
# Text: as §2, §3
# In FIG. 28, neither the test compounds nor BHPI kill non-tumorigenic ERα Negative MCF-10A breast cells. ERα Negative MCF-10A cells were maintained for 24 hours in DMSO vehicle or 75 nM of BHPI or 75 nM of each of the indicated test compounds: 4, 6 and 105. Cell death was determined using the instrument-based Trypan Blue exclusion assay. (n=3±SEM).
# [9] = tested on: CaOV-3 ovarian cancer cells; assay: Automated Trypan Blue exclusion cell death assay, Caov-3; type: cell-based, human; settings: 24 hours
# Protocol: FIG. 33. 105, but not BHPI, kills therapy-resistant ovarian CaOV-3 ovarian cancer cells. (±)-105; Cell death assay: Automated Trypan Blue exclusion. (24 hours post (±)-105)
# as §2
# as §3, with “After inserting the slide into the Fisher TC20 counting is automatic (these many cells are needed because an accurate ratio of Trypan Blue positive to Trypan Blue negative cells requires about 200 cells in the field the instrument counts).” left out
# [10] = tested on: TYS-Luc cells; assay: Long-term cell culture experiment (treat 2 weeks, regrow 4 weeks), MTS, TYS-Luc; type: cell-based, human; settings: 1 μM for 2 weeks, then 4 weeks without drug
# Protocol: To simulate the effect of several weeks of treatment of a tumor in a mouse xenograft, long-term cell culture experiments were performed. TYS-Luc cells (T47DERαY537S-Luc cells; ERαY537S is the most lethal ERα mutation seen in metastatic breast cancer) were plated at 4,000 cells/well in 96 well plates. […] After 2 weeks (medium change every 2 days) cell number was determined using MTS and a standard curve of absorbance versus cell number for TYS-Luc cells. Notes: (i) Bars denote the BHPI and (−)-105 arms of the experiment. No drug is present during regrow. […] This allows any surviving cells to regrow. After 4 weeks the cells were assayed using MTS. […] (Note: Visual inspection of the wells confirmed that there were no cells in the well treated for 2 weeks with active (−)-105.) To test whether the cells that regrew after BHPI treatment were resistant to BHPI they were re-treated for another cycle (BHPI Retreat) and shown to retain sensitivity to BHPI killing. (n=8 biological replicates ±SEM.
# [11] = tested on: parental T47D cells; assay: MTS growth assay, parental T47D cells; type: cell-based, human; settings: 100 nM and 1 μM; 4 days
# Protocol: (§4) ERα containing T47D human breast cancer cells able to survive in 1 μM BHPI were selected by clonal outgrowth. The effect of 100 nM and 1 μM BHPI and (−)-105 on growth of the (BHPI-sensitive) parental T47D cells and partially BHPI-resistant T47D clones 1,3,8, and 11 was evaluated. 4,000 cells/well were plated. Cell number was determined by MTS assay from a standard curve of absorbance versus cell number. […] Thus, in 4 days (−)-105 killed some, but not all, of the resistant cells.
# [12] = tested on: partially BHPI-resistant T47D clones 1,3,8, and 11; assay: MTS growth assay, partially BHPI-resistant T47D clones; type: cell-based, human; settings: 100 nM and 1 μM; 4 days
# Protocol: as §4
# [13] = tested on: T47D, TYS and TDG cells; assay: MTS proliferation assay (4 days), T47D, TYS and TDG; type: cell-based, human
# Protocol: FIG. 30 compares the ability of BHPI and test compounds to inhibit proliferation of T47D, TYS and TDG cells. T47D cells were in medium containing 10 FBS (which contains estrogen), TYS-4 and TDG-1 cells were in medium containing 10% cd-FBS (estrogen depleted). Cells are plated at 2,000 cells/well in 96 well plates. After 24 hours in medium containing FBS or charcoal-dextran treated FBS (depleted of endogenous estrogens), the indicated concentration of each compound (in DMSO at 1/1000th of the volume of medium) was added. After 2 days the medium was changed, and the compounds were added again. After 2 additional days (4 days total) MTS assays are used to evaluate cell proliferation. (n=6 ±S.E.M.).
# [14] = tested on: OVCAR-3 cells
# [15] = tested on: MCF-7 and TYS-Luc; assay: Trypan Blue cell death plus or minus 2-APB, MCF-7 and TYS-Luc; type: cell-based, human
# Protocol: ERα positive MCF-7 and TYS-Luc were treated with DMSO vehicle (Veh), or BHPI or (−)-105 plus or minus 2-APB for the indicated times. Cells death was determined using the instrument-based Trypan Blue exclusion assay. […] This is consistent with (−)-105 inducing powerful lethal activation of the anticipatory UPR pathway. (n=3±SEM).
structure (smiles),measurement,setting,value
"O=C1Nc2c(C(F)(F)F)cccc2C1(c1ccc(O)cc1)c1ccc(OC(F)(F)F)cc1 (single isomer, unassigned; (+)) [(+)-105, 3-(4-hydroxyphenyl)-3-(4-(trifluoromethoxy)phenyl)-7-(trifluoromethyl)indolin-2-one]",IC50,"[1]; normalized to vehicle and raptinal, listed as (S)-1",> 1000 nM
same,IC50,"[1]; Homo sapiens, MCF7, 24 h",> 1000 nM
same,activity of enantiomers (cell death),[2],inactive
same,"killing of TDG-Luc cells, dose response",[3],inactive and does not kill
same,eradication of cells in long-term experiment,[4],inactive
same,effect in ERα positive and ERα negative cell lines,[5],ineffective and not toxic
"Cc1cccc2c1NC(=O)C2(c1ccc(O)cc1)c1ccc(O)cc1 [BHPI, reference compound]",tumor regression,[6],97%-99.5%
same,tumor growth,[7],stopped tumor growth and induced rapid and substantial tumor regression
same,cell death of MCF-10A cells,[8],neither BHPI nor any of the test compounds induce significant death
same,killing of Caov-3 cells,[9],blocks growth of Caov-3 cells but does not kill them
same,regrowth of cells after drug removal,[10],robust regrowth
same,effect on growth / cell number,[11],blocked growth and killed many of the T47D cells
same,effect on growth / cell number,[12],inhibited growth but could not stop growth of the resistant clones
same,inhibition of proliferation,[13],effectively inhibit proliferation
same,tumor growth / detectability,[14]; OVCAR-3 orthotopic xenograft,strongly reduced tumor growth
same,tolerability in mice,[14]; both xenograft studies,well tolerated
NCCOB(c1ccccc1)c1ccccc1 [Compound 2-APB],block of (−)-105-induced cell death,[15]; 45 and 60 min.,partially blocked
same,block of (−)-105-induced cell death,[15]; 30 minutes,nearly completely blocked
